# In US20230355646A1, “AUTOPHAGY ACTIVATOR” (Resonac Corporation, priority 2020, published 2023):
# System: ATG7 gene
# Experiment: ATG7 gene expression promoting effect in human senescent fibroblasts (quantitative real-time PCR)
# Format: cell-based
# Method: Normal human fibroblasts (NB1RGB, RIKEN BRC Cell Bank) were cultured until confluent in D-MEM medium (manufactured by Sigma-Aldrich) to which 10% fetal bovine serum (manufactured by MP Biomedicals) was added. Thereafter, the cells were treated with 250 μM aqueous hydrogen peroxide for 2 hours, and cultured for 24 hours in D-MEM medium to which fresh 10% fetal bovine serum was added. The treatment with aqueous hydrogen peroxide and the cell culture operation were repeated three times, and the obtained fibroblasts were used as senescent fibroblasts.
# The prepared senescent fibroblasts were prepared at a seeding density of 10000 cells/cm^2 and cultured for 24 hours in D-MEM medium (manufactured by Sigma-Aldrich) to which 10% fetal bovine serum (manufactured by MP Biomedicals) was added. […]
# Then, using Nucleospin (registered trademark) RNA kit (manufactured by Takara Bio Inc.), RNA was extracted from senescent fibroblasts or normal human fibroblasts in each example, and cDNA was synthesized from the obtained RNA. Next, using this cDNA as a template, by quantitative real-time PCR, the expression level of each gene was quantified using primers (manufactured by Takara Bio Inc.) specific to the LC3 gene, ATG5 gene, and ATG7 gene, respectively. […]
smiles,measurement,setting,value
"COc1ccc([C@@H]2CC(=O)c3c(O)cc(O[C@@H]4O[C@H](CO[C@@H]5O[C@@H](C)[C@H](O)[C@@H](O)[C@H]5O)[C@@H](O)[C@H](O)[C@H]4O)cc3O2)cc1O [Comparative Example 2, hesperidin]",Relative gene expression level ATG7,"10^−2% (V/V) methyl hesperidin or hesperidin, additional ingredient where in the example, 24 hours, Comparative Example 1 (DMSO) = 1.00",0.76
same,expression level of the ATG7 gene (in words),compared to DMSO only of Comparative Example 1,more decreased
